# In patent US20050003422A1, “Methods for assessing and treating cancer” (priority 2003, published 2005):
# System: AML patients
# Experiment: Clinical response of relapsed or refractory AML patients treated with the FTI
# Format: in vivo, human
# Details: of a total of 199 evaluable AML patients; 600 mg b.i.d. oral, first 21 days of each 28 day cycle
# Experimental: In the nonprophetic examples, AML patients were administered 600 mg of (R)-6-[amino(4-chlorophenyl)(1-methyl-1H-imidazol-5-yl)methyl]-4-(3-chlorophenyl)-1-methyl-2(1H)-quinolinone) (referred to as Zamestra™) at a starting oral dose of 600 mg b.i.d. for the first 21 days of each 28 day cycle in AML. Subjects were enrolled into two cohorts, those with relapsed AML and those with refractory AML. A total of […] patients (135 relapsed and 117 refractory) were treated.
# Anti-leukemic activity is defined as any bone marrow blast count less than 5% or a reduction in bone marrow blasts by at least half.
# The average value of the site and DCL blast count measurements were calculated and a Student's t-test was performed to investigate if blast counts correlated with patient response in the AML patients. […] Chi-squared analysis for all evaluable patients also found a significant correlation between high blast counts and resistance to treatment (Ω^2=9.53).
smiles,measurement,value
Cn1cncc1[C@@](N)(c1ccc(Cl)cc1)c1ccc2c(c1)c(-c1cccc(Cl)c1)cc(=O)n2C [Zamestra],"evaluable patients who had a CR, CRp, PR, or SD",24
